The values that follow come from patent US9708318B2, “Bicyclic heterocycles as FGFR4 inhibitors” (Incyte Corporation, priority 2015, dated 2017).

Molecules are shown by their SMILES.

One test concerns the target FGFR2 (Homo sapiens (Human), UniProt P21802). As to the kind of experiment: FGFR Enzymatic Assay (FRET peptide phosphorylation), FGFR2. Format: biochemical. The settings on record: pre-incubated for 4 hours. How it is done:
(§1) The inhibitor potency of the exemplified compounds was measured in an enzyme assay that measures peptide phosphorylation using FRET measurements to detect product formation. Inhibitors were serially diluted in DMSO and a volume of 0.5 μL was transferred to the wells of a 384-well plate.
(§2) The enzymes were purchased from Millipore or Invitrogen.
(§3) GraphPad prism3 was used to analyze the data.

A further test has as its target FGFR3 enzyme (Homo sapiens (Human), UniProt P22607). Nature of the test: FGFR Enzymatic Assay (FRET peptide phosphorylation), FGFR3. Format: biochemical. To be noted: pre-incubated for 4 hours; for FGFR1/FGFR3 IC50 ratio / FGFR4/FGFR3 IC50 ratio: FGFR3 selectivity; for IC50: read-out: FGFR3 IC50. The protocol: as §1, §3
The next test concerns the target FGFR4 (Homo sapiens (Human), UniProt P22455). As to the kind of experiment: FGFR Enzymatic Assay (FRET peptide phosphorylation), FGFR4. Format: biochemical. The settings on record: pre-incubated for 4 hours. The protocol:
as §1, §2, §3

For a further test, the target named is FGFR1 (Homo sapiens (Human), UniProt P11362). As to the kind of experiment: FGFR Enzymatic Assay (FRET peptide phosphorylation), FGFR1. To be noted: FGFR1 IC50 (nM), pre-incubated for 4 hours.
FGFR1, sequence (P11362 22-822): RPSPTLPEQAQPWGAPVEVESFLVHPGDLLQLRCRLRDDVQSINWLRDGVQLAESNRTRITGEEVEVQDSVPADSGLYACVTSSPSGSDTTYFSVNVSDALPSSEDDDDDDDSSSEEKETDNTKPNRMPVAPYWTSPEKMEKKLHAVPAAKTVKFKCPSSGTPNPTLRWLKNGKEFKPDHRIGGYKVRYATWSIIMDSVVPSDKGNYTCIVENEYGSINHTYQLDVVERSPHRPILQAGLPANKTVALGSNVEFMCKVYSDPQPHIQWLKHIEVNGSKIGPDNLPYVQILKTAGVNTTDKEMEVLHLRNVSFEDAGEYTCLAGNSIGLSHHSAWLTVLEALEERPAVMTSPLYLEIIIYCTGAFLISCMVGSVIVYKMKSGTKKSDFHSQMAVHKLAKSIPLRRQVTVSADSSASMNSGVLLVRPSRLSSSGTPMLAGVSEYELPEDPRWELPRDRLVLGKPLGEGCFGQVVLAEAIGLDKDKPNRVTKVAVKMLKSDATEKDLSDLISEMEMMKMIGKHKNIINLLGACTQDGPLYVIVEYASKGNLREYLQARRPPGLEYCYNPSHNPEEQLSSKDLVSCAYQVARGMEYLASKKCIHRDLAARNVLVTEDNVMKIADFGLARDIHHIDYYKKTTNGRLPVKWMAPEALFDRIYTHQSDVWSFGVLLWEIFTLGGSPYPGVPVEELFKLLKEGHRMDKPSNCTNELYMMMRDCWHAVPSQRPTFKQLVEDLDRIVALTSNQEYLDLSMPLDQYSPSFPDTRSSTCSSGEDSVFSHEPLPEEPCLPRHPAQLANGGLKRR

FGFR4, sequence (P22455 22-802): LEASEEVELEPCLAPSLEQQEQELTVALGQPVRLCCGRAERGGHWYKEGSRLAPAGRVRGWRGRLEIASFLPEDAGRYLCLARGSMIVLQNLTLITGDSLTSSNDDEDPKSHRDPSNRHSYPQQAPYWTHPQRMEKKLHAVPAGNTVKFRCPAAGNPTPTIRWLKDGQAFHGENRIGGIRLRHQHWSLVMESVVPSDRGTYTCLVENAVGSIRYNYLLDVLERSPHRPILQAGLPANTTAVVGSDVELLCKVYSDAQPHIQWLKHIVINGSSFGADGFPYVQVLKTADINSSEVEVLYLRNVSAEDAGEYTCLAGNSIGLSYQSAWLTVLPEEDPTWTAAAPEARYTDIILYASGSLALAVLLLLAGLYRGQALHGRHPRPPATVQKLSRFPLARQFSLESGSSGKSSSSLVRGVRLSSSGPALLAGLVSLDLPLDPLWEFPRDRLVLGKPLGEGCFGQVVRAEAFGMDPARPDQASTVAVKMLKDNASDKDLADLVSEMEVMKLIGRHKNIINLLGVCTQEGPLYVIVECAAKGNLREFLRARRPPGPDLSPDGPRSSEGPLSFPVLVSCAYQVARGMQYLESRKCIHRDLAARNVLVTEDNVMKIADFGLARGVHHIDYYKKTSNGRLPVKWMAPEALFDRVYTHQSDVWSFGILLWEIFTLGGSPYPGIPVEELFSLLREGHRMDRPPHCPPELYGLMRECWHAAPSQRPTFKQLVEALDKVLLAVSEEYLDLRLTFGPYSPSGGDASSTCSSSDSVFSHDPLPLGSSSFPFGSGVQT
FGFR2, sequence (P21802 22-821): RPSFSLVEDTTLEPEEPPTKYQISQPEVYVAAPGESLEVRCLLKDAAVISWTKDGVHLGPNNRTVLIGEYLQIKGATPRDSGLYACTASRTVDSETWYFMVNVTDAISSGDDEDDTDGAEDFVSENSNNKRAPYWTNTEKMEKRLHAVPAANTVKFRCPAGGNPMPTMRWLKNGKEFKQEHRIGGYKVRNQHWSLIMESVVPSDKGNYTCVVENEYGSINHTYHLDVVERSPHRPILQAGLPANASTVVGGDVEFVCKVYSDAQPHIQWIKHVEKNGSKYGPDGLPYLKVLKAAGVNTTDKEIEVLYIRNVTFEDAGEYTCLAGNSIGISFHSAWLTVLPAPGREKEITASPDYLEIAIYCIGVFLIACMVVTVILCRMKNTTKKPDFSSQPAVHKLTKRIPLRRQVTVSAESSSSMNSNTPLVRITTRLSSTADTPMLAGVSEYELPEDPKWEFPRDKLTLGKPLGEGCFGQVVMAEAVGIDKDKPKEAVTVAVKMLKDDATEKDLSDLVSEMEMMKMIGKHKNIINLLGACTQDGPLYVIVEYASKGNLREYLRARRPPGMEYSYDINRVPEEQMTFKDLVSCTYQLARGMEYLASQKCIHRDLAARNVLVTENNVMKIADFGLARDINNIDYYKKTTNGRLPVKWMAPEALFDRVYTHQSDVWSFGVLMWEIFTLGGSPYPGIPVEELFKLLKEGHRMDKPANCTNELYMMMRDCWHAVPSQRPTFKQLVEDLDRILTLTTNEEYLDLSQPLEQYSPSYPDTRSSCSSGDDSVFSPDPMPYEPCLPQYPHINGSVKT
FGFR3 enzyme, sequence (P22607 23-806): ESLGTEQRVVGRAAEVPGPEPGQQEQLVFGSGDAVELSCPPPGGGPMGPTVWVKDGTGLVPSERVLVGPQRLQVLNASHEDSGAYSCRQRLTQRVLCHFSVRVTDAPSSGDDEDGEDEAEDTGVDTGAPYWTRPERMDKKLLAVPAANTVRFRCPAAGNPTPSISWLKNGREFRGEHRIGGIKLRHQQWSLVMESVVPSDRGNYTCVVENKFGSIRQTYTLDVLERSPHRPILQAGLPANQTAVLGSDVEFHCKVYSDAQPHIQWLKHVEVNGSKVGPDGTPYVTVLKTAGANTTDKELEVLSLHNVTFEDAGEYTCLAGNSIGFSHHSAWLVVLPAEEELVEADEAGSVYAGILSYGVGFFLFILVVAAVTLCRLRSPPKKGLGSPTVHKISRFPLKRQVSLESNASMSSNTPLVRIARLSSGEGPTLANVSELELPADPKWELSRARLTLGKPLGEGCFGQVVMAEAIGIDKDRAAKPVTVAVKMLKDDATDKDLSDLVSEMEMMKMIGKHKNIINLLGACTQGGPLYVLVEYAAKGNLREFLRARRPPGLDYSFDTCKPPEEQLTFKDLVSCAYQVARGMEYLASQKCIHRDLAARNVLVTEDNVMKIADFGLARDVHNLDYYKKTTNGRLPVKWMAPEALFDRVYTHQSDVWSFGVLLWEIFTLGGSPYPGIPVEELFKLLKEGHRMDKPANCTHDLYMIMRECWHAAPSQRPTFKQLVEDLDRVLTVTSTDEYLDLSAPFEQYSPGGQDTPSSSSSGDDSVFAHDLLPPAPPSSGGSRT

Take `COc1cc(OC)c(F)c(N2Cc3cnc(-c4cn(C)nc4C)cc3N(c3ccn(C)n3)C2=O)c1F` [Example 100, 3-(2,6-difluoro-3,5-dimethoxyphenyl)-7-(1,3-dimethyl-1H-pyrazol-4-yl)-1-(1-methyl-1H-pyrazol-3-yl)-3,4-dihydropyrido[4,3-d]pyrimidin-2(1H)-one]: the IC50 fell in the range of 10 to 30 nM against FGFR2, 10 to 30 nM at FGFR3 enzyme, 30 to 200 nM against FGFR4 and 30 to 200 nM against FGFR1. Moreover, the “FGFR1/FGFR3 IC50 ratio” value at FGFR3 enzyme was over 5. In addition, on FGFR3 enzyme, the “FGFR4/FGFR3 IC50 ratio” value is reported as over 5.
With `COc1cc(OC)c(F)c(N2Cc3cnc(-c4cn(C)nc4C)cc3N(c3ccc(F)c(F)c3)C2=O)c1F` [Example 102, 3-(2,6-difluoro-3,5-dimethoxyphenyl)-1-(3,4-difluorophenyl)-7-(1,3-dimethyl-1H-pyrazol-4-yl)-3,4-dihydropyrido[4,3-d]pyrimidin-2(1H)-one], the IC50 at FGFR2 is 10 to 30 nM; on FGFR3 enzyme it was 10 to 30 nM; on FGFR4, 30 to 200 nM; on FGFR1, 30 to 200 nM. The “FGFR1/FGFR3 IC50 ratio” value on FGFR3 enzyme is reported as over 3. Moreover, at FGFR3 enzyme, the “FGFR4/FGFR3 IC50 ratio” value is listed as over 10.
Regarding `COc1cc(OC)c(F)c(N2Cc3cnc(-c4cn(C)nc4C)cc3N(c3cc(F)cc(F)c3)C2=O)c1F` [Example 103, 3-(2,6-difluoro-3,5-dimethoxyphenyl)-1-(3,5-difluorophenyl)-7-(1,3-dimethyl-1H-pyrazol-4-yl)-3,4-dihydropyrido[4,3-d]pyrimidin-2(1H)-one], the IC50 on FGFR2 was 10 to 30 nM; on FGFR3 enzyme, 10 to 30 nM; on FGFR4 it was 30 to 200 nM; against FGFR1 it was 30 to 200 nM. For the same compound, the “FGFR1/FGFR3 IC50 ratio” value at FGFR3 enzyme is listed as over 3. On FGFR3 enzyme, the “FGFR4/FGFR3 IC50 ratio” value is on record as over 5.
For the compound `COc1ccc(N2C(=O)N(c3c(F)c(OC)cc(OC)c3F)Cc3cnc(-c4cn(C)nc4C)cc32)cc1` [Example 104, 3-(2,6-difluoro-3,5-dimethoxyphenyl)-7-(1,3-dimethyl-1H-pyrazol-4-yl)-1-(4-methoxyphenyl)-3,4-dihydropyrido[4,3-d]pyrimidin-2(1H)-one], the IC50 on FGFR2 is under 10 nM; at FGFR3 enzyme, under 10 nM; at FGFR4, 30 to 200 nM; on FGFR1, 10 to 30 nM. In addition, the “FGFR1/FGFR3 IC50 ratio” value on FGFR3 enzyme was over 3. For the same compound, the “FGFR4/FGFR3 IC50 ratio” value at FGFR3 enzyme is listed as over 5.
Regarding `COc1cc(OC)c(F)c(N2Cc3cnc(-c4cn(C)nc4C)cc3N(c3ncccn3)C2=O)c1F` [Example 105, 3-(2,6-difluoro-3,5-dimethoxyphenyl)-7-(1,3-dimethyl-1H-pyrazol-4-yl)-1-(pyrimidin-2-yl)-3,4-dihydropyrido[4,3-d]pyrimidin-2(1H)-one], the IC50 at FGFR2 fell in the range of 10 to 30 nM; on FGFR3 enzyme it was 10 to 30 nM; against FGFR4, 30 to 200 nM; against FGFR1, 30 to 200 nM. Further, the “FGFR1/FGFR3 IC50 ratio” value at FGFR3 enzyme is recorded as over 3. For the same compound, the “FGFR4/FGFR3 IC50 ratio” value on FGFR3 enzyme is over 5.
Regarding `CCc1cnc(N2C(=O)N(c3c(F)c(OC)cc(OC)c3F)Cc3cnc(-c4cn(C)nc4C)cc32)cn1` [Example 106, 3-(2,6-difluoro-3,5-dimethoxyphenyl)-7-(1,3-dimethyl-1H-pyrazol-4-yl)-1-(5-ethylpyrazin-2-yl)-3,4-dihydropyrido[4,3-d]pyrimidin-2(1H)-one], the IC50 on FGFR2 lay within 30 to 200 nM; at FGFR3 enzyme, 10 to 30 nM; at FGFR4, 30 to 200 nM; against FGFR1 it was 30 to 200 nM. In addition, the “FGFR1/FGFR3 IC50 ratio” value at FGFR3 enzyme is recorded as over 3. The “FGFR4/FGFR3 IC50 ratio” value at FGFR3 enzyme is over 5.
On to `COc1cc(OC)c(F)c(N2Cc3cnc(-c4cn(C)nc4C)cc3N(c3cnc(C)cn3)C2=O)c1F` [Example 107, 3-(2,6-difluoro-3,5-dimethoxyphenyl)-7-(1,3-dimethyl-1H-pyrazol-4-yl)-1-(5-methylpyrazin-2-yl)-3,4-dihydropyrido[4,3-d]pyrimidin-2(1H)-one], for which the IC50 lay in the range of 10 to 30 nM at FGFR2, 10 to 30 nM on FGFR3 enzyme, 30 to 200 nM against FGFR4 and 30 to 200 nM against FGFR1. The “FGFR1/FGFR3 IC50 ratio” value at FGFR3 enzyme is given as over 3. Further, the “FGFR4/FGFR3 IC50 ratio” value on FGFR3 enzyme is over 10.
Take `COc1cc(OC)c(F)c(N2Cc3cnc(-c4cn(C)nc4C)cc3N(C[C@H]3CCOC3)C2=O)c1F` [Example 108, (R)-3-(2,6-difluoro-3,5-dimethoxyphenyl)-7-(1,3-dimethyl-1H-pyrazol-4-yl)-1-((tetrahydrofuran-3-yl)methyl)-3,4-dihydropyrido[4,3-d]pyrimidin-2(1H)-one]: the IC50 at FGFR2 was in the range of 10 to 30 nM; at FGFR3 enzyme, 10 to 30 nM; on FGFR4 it was 30 to 200 nM; at FGFR1 it was 30 to 200 nM. Further, the “FGFR1/FGFR3 IC50 ratio” value at FGFR3 enzyme is on record as over 3. Moreover, the “FGFR4/FGFR3 IC50 ratio” value on FGFR3 enzyme was over 3.
Consider `COc1cccc(N2C(=O)N(c3c(F)c(OC)cc(OC)c3F)Cc3cnc(-c4cn(C)nc4C)cc32)c1` [Example 109, 3-(2,6-difluoro-3,5-dimethoxyphenyl)-7-(1,3-dimethyl-1H-pyrazol-4-yl)-1-(3-methoxyphenyl)-3,4-dihydropyrido[4,3-d]pyrimidin-2(1H)-one], for which the IC50 on FGFR2 was under 10 nM; at FGFR3 enzyme, under 10 nM; at FGFR4, 30 to 200 nM; against FGFR1 it was 10 to 30 nM. Further, the “FGFR1/FGFR3 IC50 ratio” value on FGFR3 enzyme is reported as over 3. Also, at FGFR3 enzyme, the “FGFR4/FGFR3 IC50 ratio” value was over 10.
In the case of `COc1cc(OC)c(F)c(N2Cc3cnc(-c4cn(C)nc4C)cc3N(c3ccccc3F)C2=O)c1F` [Example 110, 3-(2,6-difluoro-3,5-dimethoxyphenyl)-7-(1,3-dimethyl-1H-pyrazol-4-yl)-1-(2-fluorophenyl)-3,4-dihydropyrido[4,3-d]pyrimidin-2(1H)-one], the IC50 is under 10 nM against FGFR2, under 10 nM on FGFR3 enzyme, 30 to 200 nM on FGFR4 and 10 to 30 nM against FGFR1. At FGFR3 enzyme, the “FGFR1/FGFR3 IC50 ratio” value is listed as over 3. For the same compound, on FGFR3 enzyme, the “FGFR4/FGFR3 IC50 ratio” value is recorded as over 5.
In the case of `CNS(=O)(=O)c1cccc(N2C(=O)N(c3c(F)c(OC)cc(OC)c3F)Cc3cnc(-c4cn(C)nc4C)cc32)c1` [Example 111, 3-(3-(2,6-difluoro-3,5-dimethoxyphenyl)-7-(1,3-dimethy-1H-pyrazol-4-yl)-2-oxo-3,4-dihydropyrido[4,3-d]pyrimidin-1(2H)-yl)-N-methylbenzenesulfonamide], the IC50 against FGFR2 was under 10 nM; on FGFR3 enzyme, under 10 nM; on FGFR4, 30 to 200 nM; at FGFR1, 10 to 30 nM. For the same compound, on FGFR3 enzyme, the “FGFR1/FGFR3 IC50 ratio” value was over 3. The “FGFR4/FGFR3 IC50 ratio” value on FGFR3 enzyme is over 5.
With `COc1cnc(N2C(=O)N(c3c(F)c(OC)cc(OC)c3F)Cc3cnc(-c4cn(C)nc4C)cc32)cn1` [Example 112, 3-(2,6-difluoro-3,5-dimethoxyphenyl)-7-(1,3-dimethyl-1H-pyrazol-4-yl)-1-(5-methoxypyrazin-2-yl)-3,4-dihydropyrido[4,3-d]pyrimidin-2(1H)-one], the IC50 on FGFR2 is under 10 nM; on FGFR3 enzyme, under 10 nM; at FGFR4, 30 to 200 nM; against FGFR1 it was 30 to 200 nM. In addition, the “FGFR1/FGFR3 IC50 ratio” value at FGFR3 enzyme is on record as over 3. Further, at FGFR3 enzyme, the “FGFR4/FGFR3 IC50 ratio” value is over 5.

What is called IC50 is the midpoint of a concentration-inhibition curve.
